Data reported in US20190000081A1, “PLANT DISEASE CONTROL COMPOSITION AND PLANT DISEASE CONTROL METHOD” (SUMITOMO CHEMICAL COMPANY, LIMITED, priority 2015, published 2019).

Columns and labels:
[1] = system: wheat rust fungus (Puccinia recondita); test: Test Example 4: foliar spray of flowable formulations on potted wheat, wheat rust lesion area; type: in vivo; details: wheat (cultivar. Shirogane), single use
Experimental: Five (5) parts of the present compound 1-1, 35 parts of a mixture of white carbon and ammonium polyoxyethylene alkyl ether sulfate (the weight ratio of 1:1) and […] of water were mixed, and the mixture was then finely-ground by a wet grinding method to obtain a flowable formulation comprising the present compound 1-1. Separately, the flowable formulation comprising the present compound 2-1 was prepared according to the above-mentioned similar method except that the present compound 2-1 was used instead of the present compound 1-1 to form a flowable formulation comprising the present compound 2-1.
Each of the above-mentioned respective flowable formulations, and the flowable formulation comprising the present compound 1-1 and the present compound 2-1 that was prepared according to the above-mentioned Formulation Example 3 was diluted with water such that each concentration of the respective compounds in the dilution solutions was adjusted to that indicated in Table 6, to prepare the dilution solutions, respectively.
A plastic pot was filled with soil, and thereto wheat (cultivar. Shirogane) was seeded, and the plants were grown in a greenhouse for ten days. […]
From each of the lesion area of the treated group and the untreated group, respectively, the efficacy of the treated group was calculated by the below-mentioned Equation 2. […]

wheat leaf blight fungus = test: Test Example 3: growth of wheat leaf blight fungus in YBG medium, microtiter plate, absorbance at 550 nm; type: cell-based, Mycosphaerella graminicola; details: single use, 18° C., six days
Experimental: The present compound 1-1 or the present compound 2-1 was dissolved into dimethyl sulfoxide such that each concentration of the present compound 1-1 or the present compound 2-1 was adjusted to one hundred fifty times as much as the concentration indicated in the below-mentioned Table 5. The resultant agent solution was dispensed into a microtiter plate (with 96 wells) in 1 μl portion thereof per well. One hundred forty nine (149) μl of YBG medium. (which was prepared by dissolving 10 g of yeast extract, 10 g of Bacto Peptone, and 20 mL of glycerol into 1 L of water, followed by sterilizing the medium) was dispensed into the wells to which the agent solution(s) was/were dispensed. The plate was cultivated at 18° C. for six days, thereby allowing wheat leaf blight fungus to undergo proliferation, and the absorbance at 550 nm of each well of the micro titer plate was then measured to examine a degree of growth of the wheat leaf blight fungus (hereinafter referred to as “treated group”).
Whereas, wheat leaf blight fungus was proliferated similarly to the case of the treated group except that dimethyl sulfoxide was used instead of the agent solution, and the degree of the growth was examined (hereinafter referred to as “untreated group”). The efficacy was calculated from the respective obtained degree of growth by the below-mentioned “Equation 1”.
Efficacy (%)=100×(X−Y)/X Equation 1 […]

Cc1nnc(Cl)c(-c2c(F)cccc2F)c1-c1ccccc1 [Present compound 1-1]
Efficacy (%) ([1]; concentration 0.0001 ppm): 20% | Efficacy (%) ([1]; concentration 0.01 ppm): 31% | Efficacy (%) (wheat leaf blight fungus; concentration in medium 0.005 ppm): 4% | Efficacy (%) (wheat leaf blight fungus; concentration in medium 0.1 ppm): 75%
